This series in a line: Stability study of oral contraceptive liquid formulation stored at room temperature, amount of contraceptive in solution. The format is physicochemical. The settings on record: solubilized according to the process (EtOH/PEG 400/water). The text has this: A formulation as prepared in Examples 1 or 2, as shown in Table 3 were stored in a container at room temperature and tested periodically for the amount of contraceptive in solution. The reported figure of the contraceptives in solution is in percent of label claim.

The source of these data is US6506742B2, “Soluble contraceptive liquid formulation” (Ortho-McNeil Pharmaceutical, Inc., priority 1999, dated 2003).

As to `C#C[C@]1(OC(C)=O)CC[C@H]2[C@@H]3CCC4=CC(=NO)CC[C@@H]4[C@H]3CC[C@@]21CC` (mixture of isomers) [NGM, Norgestimate], the “solubility and stability in water” value is reported as “greatly increased”.

With `C#C[C@]1(O)CC[C@H]2[C@@H]3CCc4cc(O)ccc4[C@H]3CC[C@@]21C` [EE, ethinyl estradiol], the “solubility and stability in water” value is reported as “greatly increased”.
